Results on 47 compounds are retold here after patent US7964531B2, “3-phenoxy-4-pyridazinol derivatives and herbicidal composition containing the same” (Mitsui Chemicals Agro, Inc., priority 2001, dated 2011).

Take `CS(=O)(=O)Oc1cc(Cl)nnc1Oc1ccccc1C1CC1` [Compound No. 1985, 6-Chloro-3-(2-cyclopropylphenoxy)-4-pyridazinyl methanesulfonate]: the melting point (as a rule, the temperature, or range, at which the solid turns liquid) was 162 to 172 °C. On to `Cc1cccc(C2CC2)c1Oc1nnc(Cl)cc1OC(=O)C(C)C` [Compound No. 1172, 6-Chloro-3-(2-cyclopropyl-6-methylphenoxy)-4-pyridazinyl 2-methylpropanoate], for which the melting point was in the range of 38 to 39 °C. Turning to `Oc1cc(Cl)nnc1Oc1ccccc1OC(F)F` [Compound No. 390, 6-Chloro-3-[2-(difluoromethoxy)phenoxy]-4-pyridazinol], the melting point lay within 210 to 212 °C.

As for `Oc1cc(Cl)nnc1Oc1cccc2c1OCO2` [Compound No. 544, 3-(1,3-Benzodioxol-4-yloxy)-6-chloro-4-pyridazinol], the melting point lay within 206 to 211 °C.

For `Oc1cc(Cl)nnc1Oc1ccccc1-c1ccccc1` [Compound No. 344, 3-([1,1′-Biphenyl]-2-yloxy)-6-chloro-4-pyridazinol], the melting point was 98 to 100 °C. `CN(C)c1ccc(C=O)c(Oc2nnc(Cl)cc2O)c1` [Compound No. 692, 2-[(6-Chloro-4-hydroxy-3-pyridazinyl)oxy]-4-(dimethylamino)benzaldehyde]: the melting point fell in the range of 124 to 127 °C. The compound `Cc1ccccc1Oc1nnc(-c2cccs2)cc1O` [Compound No. 2478, 3-(2-Methylphenoxy)-6-(2-thienyl)-4-pyridazinol] registered a melting point of 86 to 87 °C. The value for `Cc1cc(C)c(Oc2nnc(Cl)cc2O)c(Br)c1` [Compound No. 1119, 3-(2-Bromo-4,6-dimethylphenoxy)-6-chloro-4-pyridazinol] was 254 to 256 °C. The value for `Cn1ccc2c(Oc3nnc(Cl)cc3O)cccc21` [Compound No. 2565, 6-Chloro-3-[(1-methyl-1H-indol-4-yl)oxy]-4-pyridazinol] was 203 to 206 °C; that for `COCc1ccccc1Oc1nnc(Cl)cc1O` [Compound No. 324, 6-Chloro-3-[2-(methoxymethyl)phenoxy]-4-pyridazinol] was 211 to 212 °C. For `Oc1cc(Cl)nnc1Oc1ccccc1Cc1ccccc1` [Compound No. 315, 3-(2-Benzylphenoxy)-6-chloro-4-pyridazinol], the melting point lay within 185 to 187 °C. `Cc1cc2c(c(Oc3nnc(Cl)cc3O)c1C)CCC2` [Compound No. 1129, 6-Chloro-3-[(5,6-dimethyl-2,3-dihydro-1H-inden-4-yl)oxy]-4-pyridazinol] gave a melting point of 210 to 213 °C. Compound `Cn1ccc2cccc(Oc3nnc(Cl)cc3O)c21` [Compound No. 2568, 6-Chloro-3-[(1-methyl-1H-indol-7-yl)oxy]-4-pyridazinol] gave a melting point of 219 to 221 °C. The value for `CCCS(=O)(=O)Oc1cc(Cl)nnc1Oc1ccccc1C` [Compound No. 2038, 6-Chloro-3-(2-methylphenoxy)-4-pyridazinyl 1-propanesulfonate] was 72 to 73 °C; that for `Cc1cc(OC(=O)c2ccccc2)ccc1Oc1nnc(Cl)cc1OC(=O)c1ccccc1` [Compound No. 3850, 4-{[4-(Benzoyloxy)-6-chloro-3-pyridazinyl]oxy}-3-methylphenyl benzoate] was 118 to 120 °C. The value for `Cc1cccc(Oc2nnc(Cl)cc2O)c1[N+](=O)[O-]` [Compound No. 498, 6-Chloro-3-(3-methyl-2-nitrophenoxy)-4-pyridazinol] was 191 to 200 °C; that for `Cc1ccccc1Oc1nnc(-c2ccccc2)cc1O` [Compound No. 2464, 3-(2-Methylphenoxy)-6-phenyl-4-pyridazinol] was 236 to 237 °C; that for `COc1cscc1C(=O)Oc1cc(Cl)nnc1Oc1c(C)cccc1C1CC1` [Compound No. 3378, 6-Chloro-3-(2-cyclopropyl-6-methylphenoxy)-4-pyridazinyl 4-methoxy-3-thiophenecarboxylate] was 146 to 149 °C. Take `COc1ccccc1Oc1nnc(Cl)cc1OS(=O)(=O)c1ccc(C)cc1` [Compound No. 2232, 6-Chloro-3-(2-methoxyphenoxy)-4-pyridazinyl 4-methylbenzenesulfonate]: the melting point fell in the range of 153 to 157 °C. `COc1cccc(Oc2nnc(Cl)cc2O)c1C` [Compound No. 459, 6-Chloro-3-(3-methoxy-2-methylphenoxy)-4-pyridazinol] showed a melting point of 224 to 237 °C. The value for `CN(C)S(=O)(=O)n1nccc1-c1ccccc1Oc1nnc(Cl)cc1O` [Compound No. 369, 5-{2-[(6-Chloro-4-hydroxy-3-pyridazinyl)oxy]phenyl}N,N-dimethyl-1H-pyrazole-1-sulfonamide] was 151 to 152 °C.

`Cc1c([N+](=O)[O-])ccc(C2CC2)c1Oc1nnc(Cl)cc1O` [Compound No. 2589, 6-Chloro-3-(6-cyclopropyl-2-methyl-3-nitrophenoxy)-4-pyridazinol] gave a melting point of 140 to 143 °C. `Cc1ccc2c(c1Oc1nnc(Cl)cc1O)COC2` [Compound No. 2592, 6-Chloro-3-[(5-methyl-1,3-dihydro-2-benzofuran-4-yl)oxy]-4-pyridazinol] registered a melting point of 188 to 200 °C. The value for `Cc1ccc(S(=O)(=O)Oc2cc(Cl)nnc2Oc2cc(C)ccc2C(C)C)cc1` [Compound No. 2249, 6-Chloro-3-(2-isopropyl-5-methylphenoxy)-4-pyridazinyl 4-methylbenzenesulfonate] was 90 to 92 °C; that for `CCc1ccccc1Oc1nnc(Cl)cc1O` [Compound No. 130, 6-Chloro-3-(2-ethylphenoxy)-4-pyridazinol] was 217 to 218 °C. `Cc1cccc(C2CC2)c1Oc1nnc(Cl)cc1C(=O)[O-].[K+]` gave a melting point of 187 to 189 °C. `Cc1cc(C)c([N+](=O)[O-])c(Oc2nnc(Cl)cc2O)c1C` [Compound No. 2608, 6-Chloro-3-(2,3,5-trimethyl-6-nitrophenoxy)-4-pyridazinol] returned a melting point of 172 to 174 °C.

With `CC(C)c1ccccc1Oc1nnccc1O` [Compound No. 6, 3-(2-Isopropylphenoxy)-4-pyridazinol], the melting point is 181.5 to 182 °C. `CC(C)Sc1ccccc1Oc1nnc(Cl)cc1O` [Compound No. 403, 6-Chloro-3-[2-(isopropylsulfanyl)phenoxy]-4-pyridazinol] displayed a melting point of 176 to 177 °C. On to `Oc1cc(Cl)nnc1Oc1c(Br)cccc1Br` [Compound No. 756, 6-Chloro-3-(2,6-dibromophenoxy)-4-pyridazinol], for which the melting point lay within 274 to 278 °C. The value for `COc1ccc(Br)cc1Oc1nnc(Cl)cc1O` [Compound No. 702, 3-(5-Bromo-2-methoxyphenoxy)-6-chloro-4-pyridazinol] was 135 to 137 °C; that for `N#CC1(c2ccccc2Oc2nnc(Cl)cc2O)CCC1` [Compound No. 287, 1-{2-[(6-Chloro-4-hydroxy-3-pyridazinyl)oxy]phenyl}cyclobutanecarbonitrile] was 213 to 215 °C. The value for `C=CCc1ccccc1Oc1nnc(Cl)cc1O` [Compound No. 307, 3-(2-Allylphenoxy)-6-chloro-4-pyridazinol] was 200 to 202.5 °C; that for `CC(=O)c1cccc(Oc2nnc(Cl)cc2O)c1` [Compound No. 422, 1-{3-[(6-Chloro-4-hydroxy-3-pyridazinyl)oxy]phenyl}ethanone] was 195 to 198 °C; that for `COc1ccc(C)c(Oc2nnc(Cl)cc2O)c1` [Compound No. 629, 6-Chloro-3-(5-methoxy-2-methylphenoxy)-4-pyridazinol] was 170 to 172 °C. The value for `Cc1cccc(C2CC2)c1Oc1nnc(Cl)cc1OS(=O)(=O)C(F)(F)F` [Compound No. 2106, 6-Chloro-3-(2-cyclopropyl-6-methylphenoxy)-4-pyridazinyl trifluoromethanesulfonate] was 64 to 67 °C.

In turn, `CC(C)c1cccc(Cl)c1Oc1nnc(Cl)cc1O` [Compound No. 738, 6-Chloro-3-(2-chloro-6-isopropylphenoxy)-4-pyridazinol] had a melting point of 218 to 233 °C. In the case of `Oc1cc(Cl)nnc1Oc1c(Br)cccc1C1CC1` [Compound No. 762, 3-(2-Bromo-6-cyclopropylphenoxy)-6-chloro-4-pyridazinol], the melting point lay in the range of 230 to 232 °C. Regarding `Oc1cc(Cl)nnc1Oc1ccccc1C1CCC1` [Compound No. 284, 6-Chloro-3-(2-cyclobutylphenoxy)-4-pyridazinol], the melting point was in the range of 188 to 189 °C. `Oc1cc(Cl)nnc1Oc1cc(F)ccc1C1CC1` [Compound No. 658, 6-Chloro-3-(2-cyclopropyl-5-fluorophenoxy)-4-pyridazinol]: the melting point lay within 227 to 228 °C. The value for `CC(=O)c1ccc(Oc2nnc(Cl)cc2O)c(C)c1` [Compound No. 2570, 1-{4-[(6-Chloro-4-hydroxy-3-pyridazinyl)oxy]-3-methylphenyl}ethanone] was 182 to 184 °C; that for `COc1cccc(Oc2nnc(Cl)cc2OC(=O)c2ccccc2C)c1` [Compound No. 1458, 6-Chloro-3-(3-methoxyphenoxy)-4-pyridazinyl 2-methylbenzoate] was 66 to 67 °C; that for `CCCc1cccc(CCC)c1Oc1nnc(Cl)cc1O` [Compound No. 890, 6-Chloro-3-(2,6-dipropylphenoxy)-4-pyridazinol] was 191 to 193 °C. The value for `Oc1cc(Cl)nnc1Oc1ccc(C2CC2)cc1` [Compound No. 434, 6-Chloro-3-(4-cyclopropylphenoxy)-4-pyridazinol] was 221 to 227 °C; that for `CC=Cc1ccccc1Oc1nnc(Cl)cc1O` [Compound No. 305, 6-Chloro-3-[2-(1-propenyl)phenoxy}-4-pyridazinol] was 204 to 206 °C.

As to `Oc1cc(Cl)nnc1Oc1cc(Cl)ccc1C1CC1` [Compound No. 659, 6-Chloro-3-(5-chloro-2-cyclopropylphenoxy)-4-pyridazinol], the melting point fell in the range of 194 to 195 °C.

As for `CC1(c2ccccc2Oc2nnc(Cl)cc2O)CC1` [Compound No. 144, 6-Chloro-3-[2-(1-methylcyclopropyl)phenoxy]-4-pyridazinol], the melting point was 196 to 198 °C.
